Test results as given in US11001578B2, “N-((HET)arylmethyl)-heteroaryl-carboxamides compounds as plasma kallikrein inhibitors” (KALVISTA PHARMACEUTICALS LIMITED, priority 2014, dated 2021).

Legend:
Human KLK1 = Human KLK1 (Homo sapiens (Human), UniProt P06870); assay: Determination of the IC50 for KLK1 (fluorogenic substrate H-DVal-Leu-Arg-AFC); type: biochemical; settings: 25° C.
Experimental: Determination of the IC50 for KLK1
Human KLK1 (Callbiochem) was incubated at 25° C. with the fluorogenic substrate H-DVal-Leu-Arg-AFC and various concentrations of the test compound. Residual enzyme activity (initial rate of reaction) was determined by measuring the change in […] at 410 nm and the IC50 value for the test compound was determined.

Human FXIa = Human FXIa (Homo sapiens (Human), UniProt P03951); assay: Determination of the % inhibition for FXIa (fluorogenic substrate Z-Gly-Pro-Arg-AFC); type: biochemical; settings: 40 μM of the test compound, 25° C.
Experimental: Determination of the % Inhibition for FXIa
Human FXIa (Enzyme Research Laboratories) was incubated at 25° C. with the fluorogenic substrate Z-Gly-Pro-Arg-AFC and 40 μM of the test compound. Residual enzyme activity (initial rate of reaction) was determined by measuring the change in […].

Human FXIa, sequence (P03951 388-625 limits assumed): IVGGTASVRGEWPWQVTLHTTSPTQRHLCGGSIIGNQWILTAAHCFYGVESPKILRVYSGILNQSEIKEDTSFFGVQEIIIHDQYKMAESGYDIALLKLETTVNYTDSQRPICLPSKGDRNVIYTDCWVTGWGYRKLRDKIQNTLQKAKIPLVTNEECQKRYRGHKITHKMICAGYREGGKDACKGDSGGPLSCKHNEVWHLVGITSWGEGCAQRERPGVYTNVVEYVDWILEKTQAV
Human FXIa, sequence (P03951 19-387 partner limits assumed): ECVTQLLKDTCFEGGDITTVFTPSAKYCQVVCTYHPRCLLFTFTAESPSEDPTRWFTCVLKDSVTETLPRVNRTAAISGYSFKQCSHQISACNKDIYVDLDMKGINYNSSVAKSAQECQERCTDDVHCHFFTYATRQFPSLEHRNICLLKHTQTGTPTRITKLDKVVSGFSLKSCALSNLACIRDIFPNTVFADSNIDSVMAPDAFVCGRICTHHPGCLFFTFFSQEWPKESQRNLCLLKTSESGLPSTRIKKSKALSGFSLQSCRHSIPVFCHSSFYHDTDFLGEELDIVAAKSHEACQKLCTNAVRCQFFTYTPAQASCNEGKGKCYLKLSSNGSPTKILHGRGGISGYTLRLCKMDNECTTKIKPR
Human KLK1, sequence (P06870 25-262): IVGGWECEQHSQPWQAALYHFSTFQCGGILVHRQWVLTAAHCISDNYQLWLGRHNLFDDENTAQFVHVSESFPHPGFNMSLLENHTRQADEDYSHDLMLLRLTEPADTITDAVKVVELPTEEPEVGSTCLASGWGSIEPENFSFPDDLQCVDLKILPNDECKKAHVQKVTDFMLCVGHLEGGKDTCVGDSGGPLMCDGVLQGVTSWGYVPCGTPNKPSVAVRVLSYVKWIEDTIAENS

## COc1cc(F)c(CNC(=O)c2cn(Cc3ccc(Cn4cc(C)cn4)cc3)nc2C(F)(F)F)c(F)c1 [Example 11, N-[(2,6-difluoro-4-methoxyphenyl)methyl]-1-({4-[(4-methylpyrazol-1-yl)methyl]phenyl}methyl)-3-(trifluoromethyl)pyrazole-4-carboxamide]
Human KLK1
  IC50: > 10 µM

## NC(=O)c1cccc(CNC(=O)c2cn(Cc3ccc(Cn4ccccc4=O)cc3)nc2C2CC2)c1 [Example 49, N-[(3-carbamoylphenyl)methyl]-3-cyclopropyl-1-({4-[(2-oxopyridin-1-yl)methyl]phenyl}methyl)pyrazole-4-carboxamide]
Human FXIa
  % Inhibition @ 40 μM (human FXIa): 0%

## COc1cccc(CNC(=O)c2cn(Cc3ccc(Cn4ccccc4=O)cc3)nc2C2CC2)c1F [Example 52, 3-cyclopropyl-N-[(2-fluoro-3-methoxyphenyl)methyl]-1-({4-[(2-oxopyridin-1-yl)methyl]phenyl}methyl)pyrazole-4-carboxamide]
Human FXIa
  % Inhibition @ 40 μM (human FXIa): 1%

## Nc1nn(Cc2ccc(Cn3ccccc3=O)cc2)cc1C(=O)NCc1ccc(OC(F)(F)F)cc1 [Example 58, 3-amino-1-({4-[(2-oxopyridin-1-yl)methyl]phenyl}methyl)-N-{[4-(trifluoromethoxy)phenyl]methyl}pyrazole-4-carboxamide]
Human FXIa
  % Inhibition @ 40 μM (human FXIa): 0%
